Results taken from patent US20170258871A1, “COMBINED USE OF A TRKA INHIBITOR AND AN EPHA2 INHIBITOR FOR USING IN THE TREATMENT OF SOLID CANCERS, AND METHOD FOR THE PROGNOSIS OF SURVIVAL OF A PATIENT WHO HAS A SOLID CANCER” (UNIVERSITE DES SCIENCES ET TECHNOLOGIES DE LILLE, priority 2014, published 2017).

Columns and labels:
CAL27 cells = test: In vitro invasion test (Boyden chamber), CAL 27; type: cell-based; details: NGF 16 nM or proNGF N.C. 0.5 nM, untreated cells = 100%
Procedure: (§1) (0.5 nM) for a period of 20 hours. The untreated cells represent the control and determine a base invasion of 100%.
(§2) The Boyden Chambers (Transwell®; BD Biosciences; France) were recovered from a biological matrix (type 1 collagen from rats diluted to 400 μg·mL-1 in EMEM-0.1% FCS medium; Millipore). The cells were then seeded with 100,000 cells/well on PET membranes (polyethylene terephtalate; dia.: 10.5 mm; porosity: 8 μm) of Boyden Chambers and held in an EMEM-0.1% FCS medium. […] (0.5 nM) in the lower part. After 20 hours of culture, they were washed twice with PBS 1× and fixed (ice cold methanol; 15 min; −20° C.). The non-invasive cells (upper face of the Transwell®) were eliminated by scraping. The number of cells was estimated after staining with Hoechst 33 258 (1 mM; 30 min; 20° C.) by counting the nuclei thereof using fluorescence microscopy on a total of 5 five randomly chosen fields (lens 10×; λ-excitation: 345 nm; λ-emission: 478 nm; Eclipse Ti) using the ImageJ software. Each experiment was performed in triplicate. Statistical analysis of the results was performed by analysis of variance ANOVA (Bonferroni post-hoc test).

SQ20B cells = test: In vitro invasion test (Boyden chamber), SQ20B; type: cell-based; details: NGF 16 nM or proNGF N.C. 0.5 nM, untreated cells = 100%
Procedure: as §1, §2

[1] = tested on: MDA-MB-231 HA-TrkA tumours; test: Xenograft of MDA-MB-231 HA-TrkA in SCID mice, tumour volume (Experiment 1); type: in vivo; details: 3 injections every 3 days from day 14; CEP-701 10 mg/kg intraperitoneal, siEphA2 7.5 microg/mouse close to the tumour
Procedure: FIG. 9: A study of the inhibition of TrkA and EphA2 on tumour development in vivo. The tumours were developed without any intervention for 14 days and then subjected to 3 injections (every 3 days, black arrows) of solvent (control), CEP-701 (10 mg/kg), siEphA2 (7.5 microg/mouse) or CEP-701 (10 mg/kg) and siEphA2 (7.5 microg/mouse). The experiments were stopped 31 days after the first injection of the treatment for ethical considerations after the death of the control mice. A) The tumour volumes were evaluated by measuring the length (;) and the width (w) and then calculating the volume using the formula π/6×l×W×(l+w)/2; the Mann and Whitney test was carried out between the control group and CEP-701 (a), between the control groups and siEphA2 (b), between the control groups and CEP-701+siEphA2 (c), and between the groups siEphA2 and CEP-701+siEphA2 (d)*, P<0.05; **, P<0.01; ns: not significant. B) Study of the inhibition of the expression of receptors by siRNA on the overall survival of SCID mice. […] The tumour volumes were evaluated by measuring the length (l) and width (w) and then calculating the volume using the formula π/6×l×W×(l+w)/2. […] Significance was measured using the log-rank test (P=0.0022). […]
Experiment 1: the mice used were six-week old SCID females. […] The tumour volume was measured according to the following formula: π/6×length×width×(width+length)/2. […]

[2] = tested on: MDA-MB-231 HA-TrkA tumours; test: Xenograft of MDA-MB-231 HA-TrkA in SCID mice, survival (Experiment 2); type: in vivo; details: 5 injections (D14-D26), siRNA 7.5 microg/mouse close to the tumour; control 40 days; log-rank P=0.0022
Procedure: FIG. 9: A study of the inhibition of TrkA and EphA2 on tumour development in vivo. […] The experiments were stopped 31 days after the first injection of the treatment for ethical considerations after the death of the control mice. A) The tumour volumes were evaluated by measuring the length (;) and the width (w) and then calculating the volume using the formula π/6×l×W×(l+w)/2; the Mann and Whitney test was carried out between the control group and CEP-701 (a), between the control groups and siEphA2 (b), between the control groups and CEP-701+siEphA2 (c), and between the groups siEphA2 and CEP-701+siEphA2 (d)*, P<0.05; **, P<0.01; ns: not significant. B) Study of the inhibition of the expression of receptors by siRNA on the overall survival of SCID mice. The tumours were developed without any intervention for 14 days and were then subjected to 5 injections (D14, DI7, D20, D23, D26) of SiTrkA (7.5 microg/mouse), siEphA2 (7.5 microg/mouse), siTrkA (7.5 microg/mouse) and siEphA2 (7.5 microg/mouse). […] The tumour volumes were evaluated by measuring the length (l) and width (w) and then calculating the volume using the formula π/6×l×W×(l+w)/2. […] Significance was measured using the log-rank test (P=0.0022). […]
Experiment 2: The mice used were six-week old SCID females. […] The tumour volume was measured according to the following formula: π/6×length×width×(width+length)/2. […]

Substance | cell invasion under growth factor (CAL27 cells) | cell invasion under growth factor (SQ20B cells) | tumour volume / growth of xenografted tumours vs control [1] | median survival [2] [days]
NGF: Nerve Growth Factor; recombinant human β NGF supplied by Scil Proteins | did not respond | induced |  | 
siEphA2: siRNA against EphA2, GCAAGGAAGUGGUACUGCUGGACUU (SEQ ID NO: 1) (listed as RNA, chemistry not given here) |  |  | strongly reduces the growth of xenografted tumours | 49
